From PubChem BioAssay (NCI) come the findings set out here.

SMILES strings stand for the structures. Where “and” joins values, the source holds several entries; their conditions need not be identical. Equal values may be shown once.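 Briefly, cells in 96-well plates were exposed to five compound concentrations for 48 h, and endpoints were estimated by linear interpolation. Abbreviation: GI50, concentration required for 50% inhibition of growth. TGI denotes the concentration required for complete inhibition of growth.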

Test systems include OVCAR-4 ovarian; MDA-MB-435; BT-549 breast; K-562 leukemia; HCT-15 colon; HCT-116 colon; TK-10 renal; MALME-3M melanoma; CAKI-1 renal; SF-539 CNS.
Holding throughout (assay): NCI anticancer screen, dose series, 48 h

With `COc1ccc(-c2cn(-c3cc(OC)c(OC)c(OC)c3)c(=O)n2-c2ccccc2)cc1`, the GI50 with OVCAR-4 ovarian was 51.7 µM; with MDA-MB-435, > 100 µM; in the assay with BT-549 breast it was > 100 µM; in the assay on K-562 leukemia, > 100 µM; in the assay with HCT-15 colon, 52.6 µM; in the assay on HCT-116 colon, > 100 µM. Also, the GI50 with TK-10 renal is > 100 µM; in the assay with MALME-3M melanoma, 38.5 µM; in the assay on CAKI-1 renal, > 100 µM; with SF-539 CNS it was > 100 µM. Besides, the TGI in the assay on OVCAR-4 ovarian, in the assay on MDA-MB-435, in the assay with BT-549 breast, with K-562 leukemia, in the assay with HCT-15 colon and with HCT-116 colon was > 100 µM throughout. Also, the TGI in the assay on TK-10 renal, in the assay with MALME-3M melanoma, with CAKI-1 renal and in the assay on SF-539 CNS was > 100 µM throughout.
Turning to `O=C1c2c(O)ccc(O)c2C(=O)c2c(NCCNCCO)ccc(NCCNCCO)c21`, the TGI with OVCAR-4 ovarian is 2.08 µM and 0.744 µM and 1.4 µM; in the assay with MDA-MB-435, 1.65 µM and 1.07 µM and 1.82 µM; in the assay with BT-549 breast, 0.5 µM and 2.11 µM and 0.54 µM; in the assay with K-562 leukemia, 1.71 µM and 1.78 µM; in the assay with HCT-15 colon, 2.55 µM and 24 µM and 4.15 µM; in the assay on HCT-116 colon it was 0.327 µM and 1.23 µM and 0.858 µM. Also, the TGI in the assay with TK-10 renal was 1.36 µM and 0.654 µM and 2.05 µM; with MALME-3M melanoma, 1.45 µM and 0.955 µM and 0.974 µM; with CAKI-1 renal, 1.07 µM and 0.18 µM; in the assay with SF-539 CNS it was 0.0705 µM and 0.699 µM and 0.244 µM. Moreover, the figures for the GI50 with MDA-MB-435, in the assay on K-562 leukemia and in the assay with HCT-116 colon were 0.297 µM, 0.142 µM and 0.0451 µM, respectively.
Regarding `CN1CCN(CCCOc2ccc3ncnc(Nc4ccc(Oc5cccc(F)c5)c(Cl)c4)c3c2)CC1`, the GI50 is 1.62 µM in the assay with OVCAR-4 ovarian; 1.67 µM with MDA-MB-435; 1.7 µM in the assay with BT-549 breast; 1.19 µM in the assay on K-562 leukemia; 1.27 µM in the assay on HCT-15 colon; 1.51 µM in the assay on HCT-116 colon. Besides, the GI50 with TK-10 renal was 1.05 µM; in the assay with MALME-3M melanoma, 1.56 µM; in the assay with CAKI-1 renal it was 1.52 µM; in the assay with SF-539 CNS, 1.54 µM. Besides, the TGI is 3.6 µM with OVCAR-4 ovarian; 3.19 µM with MDA-MB-435; 3.3 µM with BT-549 breast; 4.34 µM in the assay on K-562 leukemia; 2.92 µM with HCT-15 colon; 2.86 µM in the assay on HCT-116 colon. Also, the TGI with TK-10 renal amounted to 2.32 µM; in the assay with MALME-3M melanoma, 3.05 µM; with CAKI-1 renal it was 3.1 µM; with SF-539 CNS, 2.93 µM.
Turning to `CCOc1cccc(/C=N/NC(=O)Cc2ccc(Nc3ccnc(C(F)(F)F)c3)cc2)c1O`, the GI50 in the assay on OVCAR-4 ovarian is 0.824 µM; with MDA-MB-435, 3.77 µM; with BT-549 breast it was 2.34 µM; in the assay with K-562 leukemia it was 2.25 µM; in the assay on HCT-15 colon it was 0.909 µM; in the assay on HCT-116 colon, 1.2 µM. Besides, the GI50 with TK-10 renal is 4.01 µM; with MALME-3M melanoma, 2.13 µM; in the assay on CAKI-1 renal it was 2.54 µM; with SF-539 CNS, 2.03 µM. Also, the TGI in the assay with OVCAR-4 ovarian is > 100 µM; with MDA-MB-435 it was > 100 µM; with BT-549 breast it was 46.3 µM; in the assay on K-562 leukemia it was 15 µM; in the assay with HCT-15 colon it was > 100 µM; with HCT-116 colon it was 19.3 µM. The TGI in the assay with TK-10 renal came to 44.5 µM; in the assay on MALME-3M melanoma it was 18.7 µM; in the assay with CAKI-1 renal, 52.2 µM; in the assay on SF-539 CNS it was 14.5 µM.
Regarding `O=C(Nc1nc2ccc(F)cc2s1)c1cccnc1Nc1ccc(Cl)cc1Cl`, the GI50 in the assay on OVCAR-4 ovarian was 1.57 µM; in the assay with MDA-MB-435, 3.04 µM; in the assay on BT-549 breast it was 2.97 µM; in the assay with K-562 leukemia, 1.93 µM; in the assay with HCT-15 colon it was 3.35 µM; in the assay on HCT-116 colon, 2.07 µM. Moreover, the GI50 is 3.53 µM with TK-10 renal, 2.19 µM in the assay on MALME-3M melanoma, 1.91 µM in the assay on CAKI-1 renal and 4.15 µM in the assay on SF-539 CNS. The TGI in the assay on OVCAR-4 ovarian was > 44.5 µM; in the assay on MDA-MB-435, 14.3 µM; in the assay with BT-549 breast, 17.5 µM; with K-562 leukemia it was 9.26 µM; in the assay with HCT-15 colon, 20.3 µM; in the assay with HCT-116 colon it was 8.01 µM. For the same compound, the TGI with TK-10 renal turned out to be 19.1 µM; with MALME-3M melanoma, 12.1 µM; with CAKI-1 renal, 8.71 µM; in the assay on SF-539 CNS, 15.3 µM.
For the compound `CC(=O)c1c(Nc2ccc(F)c(F)c2F)[nH]c2c(F)cc(F)cc2c1=O`, the GI50 was 0.32 µM in the assay with OVCAR-4 ovarian; 0.365 µM with MDA-MB-435; 0.335 µM in the assay on BT-549 breast; 0.347 µM with K-562 leukemia; 0.331 µM with HCT-15 colon; 0.291 µM in the assay with HCT-116 colon. In addition, the GI50 with TK-10 renal is 0.503 µM; in the assay with MALME-3M melanoma, 0.207 µM; in the assay with CAKI-1 renal, 0.218 µM; in the assay with SF-539 CNS it was 0.322 µM. For the same compound, the TGI with OVCAR-4 ovarian was > 100 µM; in the assay on MDA-MB-435, 7.26 µM; with BT-549 breast it was 5.76 µM; in the assay with K-562 leukemia, > 100 µM; in the assay with HCT-15 colon, 1.73 µM; with HCT-116 colon it was 5.57 µM. Further, the TGI amounted to 47.8 µM in the assay with TK-10 renal, 0.643 µM in the assay with MALME-3M melanoma, 1.61 µM in the assay on CAKI-1 renal and 4.33 µM in the assay on SF-539 CNS.
Take `COc1ccc(-c2nn(-c3cccc(Cl)c3)cc2-c2cc(-c3cccs3)no2)cc1`: the GI50 was 4.48 µM in the assay on OVCAR-4 ovarian; 3.26 µM in the assay on MDA-MB-435; 4.99 µM in the assay with BT-549 breast; 3.43 µM in the assay with K-562 leukemia; 4.48 µM in the assay on HCT-15 colon; 3.03 µM with HCT-116 colon. Also, the GI50 in the assay on TK-10 renal is 5.21 µM; with MALME-3M melanoma, 2.6 µM; with CAKI-1 renal it was 2.05 µM; in the assay with SF-539 CNS, 7.47 µM. Besides, the TGI is 36.4 µM in the assay on OVCAR-4 ovarian; 17.3 µM with MDA-MB-435; 21.3 µM in the assay on BT-549 breast; > 100 µM in the assay with K-562 leukemia; 32.9 µM with HCT-15 colon; 12.7 µM in the assay with HCT-116 colon. In addition, the TGI with TK-10 renal stood at 43.8 µM; with MALME-3M melanoma, 10.6 µM; with CAKI-1 renal it was 6.02 µM; in the assay on SF-539 CNS, 36.6 µM.
For the compound `Cc1ccc(NCCNCC(O)CO)c2c(=O)c3ccccc3sc12` (stereo not drawn), the GI50 with OVCAR-4 ovarian is 1.86 µM; with MDA-MB-435, 1.52 µM; in the assay on BT-549 breast it was 2.47 µM; with K-562 leukemia, 1.52 µM; in the assay on HCT-15 colon it was 1.29 µM; in the assay with HCT-116 colon it was 1.05 µM. Also, the GI50 was 1.51 µM in the assay on TK-10 renal, 1.37 µM in the assay with MALME-3M melanoma, 1.64 µM with CAKI-1 renal and 1.67 µM in the assay with SF-539 CNS. Also, the TGI in the assay on OVCAR-4 ovarian was 4.68 µM; with MDA-MB-435, 3.1 µM; with BT-549 breast it was 10.5 µM; in the assay on K-562 leukemia, 3.26 µM; with HCT-15 colon it was 2.72 µM; with HCT-116 colon, 2.3 µM. In addition, the TGI in the assay on TK-10 renal was 3.1 µM; with MALME-3M melanoma, 2.76 µM; in the assay with CAKI-1 renal, 3.38 µM; with SF-539 CNS, 3.19 µM.
As for `COc1cc(/C=C2\C(=O)Nc3ccc(Br)cc32)cc(OC)c1OC`, the GI50 was > 29 µM with OVCAR-4 ovarian; 2.02 µM in the assay with MDA-MB-435; 1.28 µM with BT-549 breast; 1.11 µM with K-562 leukemia; 3.37 µM in the assay with HCT-15 colon; 4.86 µM in the assay on HCT-116 colon. Also, the GI50 with TK-10 renal was 4.65 µM; in the assay with MALME-3M melanoma, 0.606 µM; with CAKI-1 renal, 1.85 µM; in the assay on SF-539 CNS it was 26.7 µM. For the same compound, the TGI was > 100 µM in the assay with OVCAR-4 ovarian; 7.19 µM in the assay on MDA-MB-435; 19.3 µM in the assay with BT-549 breast; > 100 µM in the assay with K-562 leukemia; > 100 µM with HCT-15 colon; > 100 µM in the assay on HCT-116 colon. Further, the TGI in the assay with TK-10 renal was 30.1 µM; with MALME-3M melanoma, 16.8 µM; with CAKI-1 renal, > 44.1 µM; in the assay on SF-539 CNS, > 100 µM.
As for `N=C(N)SCC(=O)O`, the TGI in the assay with OVCAR-4 ovarian, in the assay on MDA-MB-435, in the assay with BT-549 breast, in the assay with K-562 leukemia, in the assay on HCT-15 colon and with HCT-116 colon was > 100 µM each time. Further, the TGI with TK-10 renal, in the assay on MALME-3M melanoma, in the assay with CAKI-1 renal and in the assay with SF-539 CNS was > 100 µM each time.
Regarding `CCOC(=O)C(=Cc1c(-c2ccccc2)[nH]c2ccccc12)C(=O)OCC`, the GI50 in the assay with OVCAR-4 ovarian was 5.49 µM; with MDA-MB-435, 3.36 µM; in the assay on BT-549 breast, 5.17 µM; in the assay on K-562 leukemia it was 3.6 µM; in the assay on HCT-15 colon, 4.07 µM; with HCT-116 colon, 4.25 µM. Further, the GI50 with TK-10 renal is 13.5 µM; in the assay with MALME-3M melanoma, 8.09 µM; in the assay on CAKI-1 renal, 8.26 µM; with SF-539 CNS it was 14.4 µM. Besides, the TGI in the assay on OVCAR-4 ovarian was > 76.5 µM; with MDA-MB-435 it was 13.6 µM; in the assay with BT-549 breast, 38.5 µM; in the assay with K-562 leukemia, 24 µM; with HCT-15 colon, 38.4 µM; in the assay with HCT-116 colon, 16 µM. The TGI in the assay with TK-10 renal is 56.9 µM; with MALME-3M melanoma it was 22.3 µM; in the assay on CAKI-1 renal, > 49.8 µM; with SF-539 CNS it was 30.9 µM.
Take `C/C(N=NC(=S)N1CCCCCC1)=C1\C=CC=CN1O`: the TGI in the assay on OVCAR-4 ovarian is > 100 µM; with MDA-MB-435, > 100 µM; in the assay on BT-549 breast it was > 100 µM; in the assay with K-562 leukemia it was > 51.3 µM; with HCT-15 colon it was > 100 µM; with HCT-116 colon, > 100 µM. The TGI with TK-10 renal was > 100 µM; in the assay with MALME-3M melanoma, 36.4 µM; in the assay with CAKI-1 renal, > 89.3 µM; in the assay with SF-539 CNS, 48.2 µM.
